Measurements as given in patent US6989396B2, “Tropane alkaloid multidrug resistance inhibitors from Erythroxylum pervillei and use of the same” (The Board of Trustees of the University of Illinois, priority 2001, dated 2006).

How the values were obtained:
[1] = tested on: KB-8-5 cells; assay: In vivo hollow fiber test: KB-8-5; parameters: species or system NCr nu/nu mice
Procedure: In vivo hollow fiber test. […] Confluent monolayers of KB-3, KB-V1 or KB-8-5 cells were harvested, collected by centrifugation and resuspended in conditioned medium at a concentration of 7.5×10^5 cells/ml.
Test compounds were administrated once daily by intraperitoneal injection from day 3–6 after implantation. Body weights were measure daily.
After incubating at 37° C. for 4 hours, the culture medium was aspirated and the samples were washed twice with normal saline containing 2.5% protamine sulfate solution by overnight incubation at 4° C. […] The formazan was extracted from each sample with DMSO (250 μl/well) for 4 hours at room temperature on a rotation platform.

[2] = tested on: KB-3 cells; assay: Growth inhibitory potential (sulforhodamine B cell survival assay): KB-3; type: cell-based; settings: Homo sapiens, KB3, 72 h, read-out: IC50 KB-3
[3] = summation of single-agent inhibitions

SMILES: COc1cc(C=CC(=O)O[C@H]2[C@@H](O)[C@@H]3C[C@H](OC(=O)c4cc(OC)c(OC)c(OC)c4)C[C@H]2N3C)cc(OC)c1OC [Compound 3, 3α-(3,4,5-trimethoxybenzoyloxy)-6β-(3,4,5-trimethoxycinnamoyloxy)-7β-hydroxytropane]
- Calculated inhibition (vinblastine + reversing agent as single agents), KB-8-5, i.p. site [1, 3]: 4.5%
- Calculated inhibition (vinblastine + reversing agent as single agents), KB-8-5, s.c. site [1, 3]: 4.9%
- Observed inhibition from coadministration with vinblastine, KB-8-5, s.c. site ([1]; vinblastine 100 μg/kg + reversing agent 0.136 mmol/kg): 28 (P = 0.008) %
- Observed inhibition from coadministration with vinblastine, KB-8-5, i.p. site ([1]; vinblastine 100 μg/kg + reversing agent 0.136 mmol/kg, listed as pervilleine A): 74.7 (P < 0.0001) %
- Growth inhibition, single agent, KB-8-5, s.c. site ([1]; vinblastine 100 μg/kg, reversing agents 0.136 mmol/kg): 2.6%
- Growth inhibition, single agent, KB-8-5, i.p. site ([1]; vinblastine 100 μg/kg, reversing agents 0.136 mmol/kg, i.p. injection once daily days 3–6): 3.3%
- IC50 [2]: 24 µM
